The results in this text go back to patent US7259161B2, “Compositions useful as inhibitors of JAK and other protein kinases” (Vertex Pharmaceuticals Incorporated, priority 2002, dated 2007).

The structures appear in SMILES notation.

Sequence of JNK3 (P53779 whole entry, species assumed): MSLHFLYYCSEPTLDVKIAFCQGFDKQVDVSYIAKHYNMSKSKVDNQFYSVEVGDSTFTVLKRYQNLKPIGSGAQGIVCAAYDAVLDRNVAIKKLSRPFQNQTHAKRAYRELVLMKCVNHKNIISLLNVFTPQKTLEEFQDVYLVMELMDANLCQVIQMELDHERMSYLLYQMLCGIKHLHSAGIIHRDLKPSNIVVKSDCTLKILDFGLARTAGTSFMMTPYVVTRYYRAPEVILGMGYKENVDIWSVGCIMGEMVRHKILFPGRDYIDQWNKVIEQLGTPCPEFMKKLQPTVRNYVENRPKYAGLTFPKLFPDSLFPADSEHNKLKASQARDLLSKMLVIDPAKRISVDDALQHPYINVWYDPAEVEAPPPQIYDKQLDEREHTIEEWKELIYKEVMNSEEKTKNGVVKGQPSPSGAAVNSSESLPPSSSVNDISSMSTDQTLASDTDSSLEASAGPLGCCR

One assay has as its target JNK3 (Homo sapiens, UniProt P53779). Put plainly: JNK3 inhibition assay (spectrophotometric coupled-enzyme assay). It counts as biochemical. Particulars: 10 μM ATP, 10 nM activated JNK3. How it is done:
Compounds were assayed for the inhibition of JNK3 by a spectrophotometric coupled-enzyme assay. In this assay, a fixed concentration of activated JNK3 (10 nM) was incubated with various concentrations of a potential inhibitor dissolved in DMSO for 10 minutes at 30° C. in a buffer containing 0.1 M HEPES buffer, pH 7.5, containing 10 mM MgCl2, 2.5 mM phosphoenolpyruvate, 200 μM NADH, 150 μg/mL pyruvate kinase, 50 μg/mL lactate dehydrogenase, and 200 μM EGF receptor peptide. The EGF receptor peptide is a phosphoryl acceptor in the JNK3-catalyzed kinase reaction. The reaction was initiated by the addition of 10 μM ATP and the assay plate is inserted into the spectrophotometer's assay plate compartment that was maintained at 30° C. The decrease of absorbance at 340 nm was monitored as a function of time. The rate data as a function of inhibitor concentration was fitted to competitive inhibition kinetic model to determine the Ki.
For `CN1C(=O)COc2ccc(-c3ccnc(Nc4ccccc4)n3)cc21` [IVa-1], the Ki is less than 1 µM.
On the same count and under the same terms, with `CN1C(=O)COc2ccc(-c3ccnc(Nc4cccc(F)c4)n3)cc21` [IVa-2] the figure was less than 1 µM; with `Cc1cccc(Nc2nccc(-c3ccc4c(c3)N(C)C(=O)CO4)n2)c1` [IVa-3], less than 1 µM.
Same read-out and setting: with `Cc1ccc(Nc2nccc(-c3ccc4c(c3)N(C)C(=O)CO4)n2)cc1` [IVa-4] the figure was less than 1 µM; with `COc1ccc(Nc2nccc(-c3ccc4c(c3)N(C)C(=O)CO4)n2)cc1` [IVa-5], less than 1 µM; with `CN1C(=O)COc2ccc(-c3ccnc(Nc4cccc(S(N)(=O)=O)c4)n3)cc21` [IVa-22], less than 1 µM.

Another assay deals with T1, JAK3 (Homo sapiens, UniProt P52333).
T1 sequence (P52333 1-1124): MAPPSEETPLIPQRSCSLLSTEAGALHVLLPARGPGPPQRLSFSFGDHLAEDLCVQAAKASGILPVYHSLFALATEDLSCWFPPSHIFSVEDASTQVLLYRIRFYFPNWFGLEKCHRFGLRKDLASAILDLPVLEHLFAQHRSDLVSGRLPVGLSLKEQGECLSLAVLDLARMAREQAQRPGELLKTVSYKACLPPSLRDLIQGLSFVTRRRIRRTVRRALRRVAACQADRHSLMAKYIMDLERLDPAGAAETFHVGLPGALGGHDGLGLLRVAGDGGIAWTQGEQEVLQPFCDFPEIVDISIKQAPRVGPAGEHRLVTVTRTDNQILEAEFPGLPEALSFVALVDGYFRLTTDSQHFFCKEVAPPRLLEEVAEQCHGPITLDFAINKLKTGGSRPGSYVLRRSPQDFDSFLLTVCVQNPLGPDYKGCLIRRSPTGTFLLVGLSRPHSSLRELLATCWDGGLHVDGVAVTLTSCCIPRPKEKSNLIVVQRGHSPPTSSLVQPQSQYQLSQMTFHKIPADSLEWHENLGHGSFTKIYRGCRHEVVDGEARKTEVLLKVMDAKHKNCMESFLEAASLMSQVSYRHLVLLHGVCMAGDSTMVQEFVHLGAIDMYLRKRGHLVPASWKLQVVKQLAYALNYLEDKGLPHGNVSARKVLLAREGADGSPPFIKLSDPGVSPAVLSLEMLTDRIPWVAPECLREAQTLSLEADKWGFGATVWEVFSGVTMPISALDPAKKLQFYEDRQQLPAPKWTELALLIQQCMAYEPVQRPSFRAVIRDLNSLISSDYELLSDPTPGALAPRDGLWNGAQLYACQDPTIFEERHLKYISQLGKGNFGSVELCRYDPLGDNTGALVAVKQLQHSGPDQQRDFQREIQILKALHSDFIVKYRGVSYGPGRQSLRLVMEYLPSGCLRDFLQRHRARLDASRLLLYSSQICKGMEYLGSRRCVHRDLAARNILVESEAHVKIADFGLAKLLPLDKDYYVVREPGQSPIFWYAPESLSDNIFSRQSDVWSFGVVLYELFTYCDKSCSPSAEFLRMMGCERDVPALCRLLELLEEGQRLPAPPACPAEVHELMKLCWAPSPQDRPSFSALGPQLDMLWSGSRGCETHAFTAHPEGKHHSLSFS
Nature of the assay: JAK3 inhibition assay. Particulars: 2 μM ATP, ELISA read at 450 nm. The class given is biochemical. On the procedure: Compounds were screened for their ability to inhibit JAK3 according to the method described by G. R. Brown, et al, Bioorg. Med. Chem. Lett. 2000, vol. 10, pp 575–579 in the following manner. Into Maxisorb plates, previously coated at 4° C. with Poly (Glu, Ala, Tyr) 6:3:1 then washed with phosphate buffered saline 0.05% and Tween (PBST), was added 2 μM ATP, 5 MM MgCl2, and a solution of compound in DMSO. The reaction was started with JAK enzyme and the plates incubated for 60 minutes at 30° C. The plates were then washed with PBST, 100 μL HRP-Conjugated 4G10 antibody was added, and the plate incubated for 90 minutes at 30° C. The plate was again washed with PBST, 100 μL TMB solution is added, and the plates were incubated for another 30 minutes at 30° C. Sulfuric acid (100 μL of 1M) was added to stop the reaction and the plate is read at 450 nm to obtain the optical densities for analysis to determine Ki values.
Background: ELISA stands for enzyme-linked immunosorbent assay.
`CN1C(=O)COc2ccc(-c3ccnc(Nc4ccccc4)n3)cc21` [IVa-1] came in with a Ki of less than 1 µM.
The same measure, in the same setting: with `CN1C(=O)COc2ccc(-c3ccnc(Nc4cccc(F)c4)n3)cc21` [IVa-2] the figure was less than 5 µM; with `Cc1cccc(Nc2nccc(-c3ccc4c(c3)N(C)C(=O)CO4)n2)c1` [IVa-3], less than 1 µM; with `Cc1ccc(Nc2nccc(-c3ccc4c(c3)N(C)C(=O)CO4)n2)cc1` [IVa-4], less than 5 µM.
Same read-out and setting: as for `COc1ccc(Nc2nccc(-c3ccc4c(c3)N(C)C(=O)CO4)n2)cc1` [IVa-5], the figure is less than 5 µM; as for `Cc1cc(C)cc(Nc2nccc(-c3ccc4c(c3)N(C)C(=O)CO4)n2)c1` [IVa-6], less than 1 µM.
`COc1cc(Nc2nccc(-c3ccc4c(c3)N(C)C(=O)CO4)n2)cc(OC)c1` [IVa-7]: the Ki was less than 1 µM.
Still for that read-out and setting: with `O=C1COc2ccc(-c3ccnc(Nc4cccc(F)c4)n3)cc2N1` [IVa-10] the figure was less than 5 µM.
As for `O=C1COc2ccc(-c3ccnc(Nc4ccc(F)cc4)n3)cc2N1` [IVa-11], the Ki is less than 5 µM.
Still for that read-out and setting: as for `O=C1COc2ccc(-c3ccnc(Nc4ccc(Cl)cc4)n3)cc2N1` [IVa-13], the figure is less than 5 µM; as for `COc1cccc(Nc2nccc(-c3ccc4c(c3)NC(=O)CO4)n2)c1` [IVa-14], less than 1 µM.
On the same count and under the same terms, as for `Cc1ccccc1Nc1nccc(-c2ccc3c(c2)NC(=O)CO3)n1` [IVa-15], the figure is less than 1 µM.
`NS(=O)(=O)c1cccc(Nc2nccc(-c3ccc4c(c3)NC(=O)CO4)n2)c1` [IVa-21]: the Ki is less than 1 µM.
On the same count and under the same terms, as for `CN1C(=O)COc2ccc(-c3ccnc(Nc4cccc(S(N)(=O)=O)c4)n3)cc21` [IVa-22], the figure is less than 1 µM.
The same measure, in the same setting: as for `CN1C(=O)COc2ccc(-c3ccnc(Nc4cccc(C(N)=O)c4)n3)cc21` [IVa-25], the figure is less than 1 µM; as for `CN1C(=O)COc2ccc(-c3ccnc(Nc4cccc(C#N)c4)n3)cc21` [IVa-26], less than 5 µM; as for `CN1C(=O)COc2ccc(-c3ccnc(Nc4cccc(O)c4)n3)cc21` [IVa-27], less than 1 µM.
On the same count and under the same terms, as for `COc1cccc(Nc2nccc(-c3ccc4c(c3)N(C)C(=O)CO4)n2)c1` [IVa-28], the figure is less than 1 µM.
`O=C1COc2ccc(-c3ccnc(Nc4ccccc4)n3)cc2N1CCN1CCOCC1` [IVa-29] returned a Ki of less than 5 µM.
As for `O=C1COc2ccc(-c3ccnc(Nc4cccc(F)c4)n3)cc2N1CCN1CCOCC1` [IVa-30], the Ki was less than 5 µM.
The same measure, in the same setting: as for `O=C1COc2ccc(-c3ccnc(Nc4cccc(Cl)c4)n3)cc2N1CCN1CCOCC1` [IVa-31], the figure is less than 5 µM; as for `O=C1COc2ccc(-c3ccnc(Nc4cccc(O)c4)n3)cc2N1CCN1CCOCC1` [IVa-32], less than 5 µM.
In turn, `COc1cccc(Nc2nccc(-c3ccc4c(c3)N(CCN3CCOCC3)C(=O)CO4)n2)c1` [IVa-36] yielded a Ki of less than 5 µM.
Still for that read-out and setting: with `NS(=O)(=O)c1ccc(Nc2nccc(-c3ccc4c(c3)N(CCN3CCOCC3)C(=O)CO4)n2)cc1` [IVa-39] the figure was less than 5 µM; with `O=C1COc2ccc(-c3ccnc(Nc4ccccc4)n3)cc2N1Cc1cccnc1` [IVa-41], less than 5 µM; with `O=C1COc2ccc(-c3ccnc(Nc4cccc(Cl)c4)n3)cc2N1Cc1cccnc1` [IVa-43], less than 5 µM.
On to `O=C1COc2ccc(-c3ccnc(Nc4cccc(O)c4)n3)cc2N1Cc1cccnc1` [IVa-44], for which the Ki was less than 1 µM.
On the same count and under the same terms, as for `COc1cccc(Nc2nccc(-c3ccc4c(c3)N(Cc3cccnc3)C(=O)CO4)n2)c1` [IVa-45], the figure is less than 5 µM; as for `COC(=O)c1cccc(Nc2nccc(-c3ccc4c(c3)N(Cc3cccnc3)C(=O)CO4)n2)c1` [IVa-46], less than 5 µM.
For the compound `N#Cc1cccc(Nc2nccc(-c3ccc4c(c3)N(Cc3cccnc3)C(=O)CO4)n2)c1` [IVa-47], the inhibition constant Ki was less than 5 µM.
In the case of `O=C1COc2ccc(-c3ccnc(Nc4cccc(-c5ccccc5)c4)n3)cc2N1Cc1cccnc1` [IVa-48], the Ki is less than 5 µM.
In the case of `NS(=O)(=O)c1cccc(Nc2nccc(-c3ccc4c(c3)N(Cc3cccnc3)C(=O)CO4)n2)c1` [IVa-50], the Ki was less than 5 µM.
Same read-out and setting: as for `NS(=O)(=O)c1ccc(Nc2nccc(-c3ccc4c(c3)N(Cc3cccnc3)C(=O)CO4)n2)cc1` [IVa-51], the figure is less than 1 µM; as for `Cc1cc(C)cc(Nc2nccc(-c3ccc4c(c3)N(Cc3cccnc3)C(=O)CO4)n2)c1` [IVa-52], less than 5 µM.
Same read-out and setting: with `NC(=O)c1cccc(Nc2nccc(-c3ccc4c(c3)N(Cc3cccnc3)C(=O)CO4)n2)c1` [IVa-53] the figure was less than 1 µM; with `O=C1COc2ccc(-c3ccnc(Nc4cccc(F)c4)n3)cc2N1Cc1ccccn1` [IVa-55], less than 5 µM; with `O=C1COc2ccc(-c3ccnc(Nc4cccc(Cl)c4)n3)cc2N1Cc1ccccn1` [IVa-56], less than 5 µM.
The same measure, in the same setting: with `COc1cccc(Nc2nccc(-c3ccc4c(c3)N(Cc3ccccn3)C(=O)CO4)n2)c1` [IVa-57] the figure was less than 1 µM; with `COC(=O)c1cccc(Nc2nccc(-c3ccc4c(c3)N(Cc3ccccn3)C(=O)CO4)n2)c1` [IVa-58], less than 5 µM.
As to `O=C1COc2ccc(-c3ccnc(Nc4cccc(-c5ccccc5)c4)n3)cc2N1Cc1ccccn1` [IVa-59], the Ki is less than 5 µM.
Regarding `O=C1COc2ccc(-c3ccnc(Nc4cccc(Oc5ccccc5)c4)n3)cc2N1Cc1ccccn1` [IVa-60], the Ki is less than 5 µM.
Consider `O=C1COc2ccc(-c3ccnc(Nc4cccc(Cl)c4)n3)cc2N1Cc1ccncc1` [IVa-66], for which the inhibitory constant (Ki) is less than 5 µM.
Still for that read-out and setting: with `NS(=O)(=O)c1cccc(Nc2nccc(-c3ccc4c(c3)N(Cc3ccncc3)C(=O)CO4)n2)c1` [IVa-70] the figure was less than 5 µM; with `NS(=O)(=O)c1ccc(Nc2nccc(-c3ccc4c(c3)N(Cc3ccncc3)C(=O)CO4)n2)cc1` [IVa-71], less than 1 µM; with `Cc1cc(C)cc(Nc2nccc(-c3ccc4c(c3)N(Cc3ccncc3)C(=O)CO4)n2)c1` [IVa-72], less than 5 µM.

The target in the next assay is CDK-2/Cyclin A (Homo sapiens, UniProt P24941). Nature of the assay: CDK2 inhibition assay (coupled enzyme assay). The class given is biochemical. As to conditions: 100 μM ATP, 25 nM CDK-2/Cyclin A. On the procedure: Compounds were screened for their ability to inhibit CDK-2/Cyclin A using a standard coupled enzyme assay (Fox et al (1998) Protein Sci 7, 2249). Reactions were carried out in 100 mM HEPES pH 7.5, 10 mM MgCl2, 25 mM NaCl, 1 mM DTT and 1.5% DMSO. Final substrate concentrations in the assay were 100 μM ATP (Sigma chemicals) and 100 μM peptide (American Peptide, Sunnyvale, Calif.). Assays were carried out at 30° C. and 25 nM CDK-2/Cyclin A. Final concentrations of the components of the coupled enzyme system were 2.5 mM phosphoenolpyruvate, 350 μM NADH, 30 μg/ml pyruvate kinase and 10 μg/ml lactate dehydrogenase.
An assay stock buffer solution was prepared containing all of the reagents listed above, with the exception of CDK-2/Cyclin A, DTT and the test compound of interest. 56 μl of the test reaction was placed in a 384 well plate followed by addition of 1 μl of 2 mM DMSO stock containing the test compound (final compound concentration 30 μM). The plate was preincubated for ˜10 minutes at 30° C. and the reaction initiated by addition of 10 μl of enzyme (final concentration 25 nM). Rates of reaction were obtained using a BioRad Ultramark plate reader (Hercules, Calif.) over a 5 minute read time at 30° C. Compounds showing >50% inhibition versus standard wells containing DMSO, but no compound, were titrated and IC50's determined using a similar protocol.
`CN1C(=O)COc2ccc(-c3ccnc(Nc4cccc(S(N)(=O)=O)c4)n3)cc21` [IVa-22] displayed a Ki of less than 1 µM.

As usually defined, the Ki is a dissociation constant, usually derived from enzyme kinetics or from competition with a known ligand.
